The values below come from patent US11396501B2, “Heteroaryl compounds as CXCR4 inhibitors, composition and method using the same” (CGENETECH (SUZHOU, CHINA) CO., LTD., priority 2017, dated 2022).

In assay [1] the target is T1, CXCR4 (Homo sapiens, UniProt P61073). Put plainly: FLIPR Tetra calcium mobilization assay. Format: cell-based. The conditions noted are these: Human CD4+ T-Cells; CXCL12 added; FLIPR Calcium 4 assay kit. How it is done: FLIPR Tetra Calcium Mobilization Assay The FLIPR Tetra calcium mobilization assay was performed by HD Bioscience. Briefly, The Molecular Devices, Fluorescent Imaging Plate Reader (FLIPR) Tetra was used in this assay. Excitation was achieved through unique placement of LED's within the instrument and emission captured by a CCD camera (EMCCD camera for FI and ICCD camera for luminescence). The homogeneous FLIPR Calcium 4 assay kit from Molecular Devices was used as the fluorescence reagent. Compounds were solubilized in 100% dimethyl sulfoxide (DMSO) to a concentration of 30 mM. A 10-point, 4-fold, intermediate dilution series was created in 100% DMSO with a top concentration of 4 mM and a bottom concentration of 0.01 μM. A near assay ready, direct dilution plate ([…]) was prepared from this compound dilution plate by transferring 1 μL of each dilution of compound in 100% DMSO to a Greiner #781201 plate. In addition, each […] plate also contained positive and negative control wells to define the upper and lower limits for the assay signal. The final assay concentration range of compound was 10 μM to 0.035 nM in 0.5% DMSO. Human CD^4+ T-Cells were isolated from human whole blood and subsequently activated and expanded using a CD3/CD28 expansion kit (Life Technologies). The cells were frozen in ThermoFisher-formulated Recovery Cell Culture Freezing Medium containing 10% Dimethyl sulfoxide (DMSO) and 10% Fetal Bovine Serum (FBS) (ThermoFisher Catalog No. 10100147). When used, cells were resuspended using room temperature 1× HBSS/20 mM HEPES/0.005% P-104 assay buffer, adjusted the volume of the suspension to achieve a cell concentration of 2.5×10^6 cells/mL. 2× Calcium 4 dye (20 μL/well) were added and the mixture were centrifuged briefly ( 10 s) and stopped when it reached 1000 rpm. The plates were allowed to equilibrate before compounds and CXCL12 were added to the plates. The raw data were analyzed using Abase. The percent (%) effect at each concentration of compound was calculated by Abase and was based on and relative to the amount of calcium produced in the positive and negative control wells contained within each assay plate. The concentrations and % effect values for tested compounds were plotted by Abase and the concentration of compound required for 50% effect (IC50) was determined with a four-parameter logistic dose response equation. FIGS. 3 and 4 summarize the results of Compounds A78 and A83 in the calcium mobilization assay.

Assay [2] deals with T1, CXCR4. Put plainly: HPB-ALL CXCR4 competitive binding assay (12G5 binding assay). The arrangement: HPB-ALL cells were maintained in RPMI-1640 (Gibico) supplemented with 10% FBS (Hyclone); endogenous in cells; host or cells: HPB-ALL cells. As to conditions: HPB-ALL cells; competition with APC-conjugated anti-human CXCR4 clone 12G5 at its EC80; 4° C. for 3 h; FACS. The procedure: HPB-ALL CXCR4 Competitive Binding Assay
HPB-ALL cells were maintained in RPMI-1640 (Gibico) supplemented with 10% FBS (Hyclone). APC-conjugated anti-human CXCR4 was from Sungene. EC80 was first determined for 12G5 binding to CXCR4. Then the compounds for testing were added into 96-well plates serially diluted at a ratio of 1:3. Cells were washed once with ice-cold assay buffer (DPBS+2% HI-FBS) and then re-suspended in the same buffer at a final concentration of 1×10^6/mL. Cell suspension was then added into the wells and with the addition of APC-conjugated anti-human CXCR4 clone 12G5 at its EC80 determined. The mix of cell, compounds and APC-conjugated anti-human CXCR4 were incubated at 4° C. for 3 h before addition of 100 μL of 4% PFA. Cells were then washed once and resuspended in assay buffer and examined by FACS. The percent (%) effect at each concentration of compound was calculated and relative to the amount of calcium produced in the positive and negative control wells contained within each assay plate. The concentrations and % effect values for tested compounds were plotted and the concentration of compound required for 50% effect (IC50) was determined. Tables 2 summarize results of the CXCR4 competitive binding assay for selected compounds disclosed in the present disclosure. FIGS. 1-2 depict the IC50 curves of compounds A42 and A43.

The structures appear in SMILES notation.

T1 sequence (P61073 whole entry): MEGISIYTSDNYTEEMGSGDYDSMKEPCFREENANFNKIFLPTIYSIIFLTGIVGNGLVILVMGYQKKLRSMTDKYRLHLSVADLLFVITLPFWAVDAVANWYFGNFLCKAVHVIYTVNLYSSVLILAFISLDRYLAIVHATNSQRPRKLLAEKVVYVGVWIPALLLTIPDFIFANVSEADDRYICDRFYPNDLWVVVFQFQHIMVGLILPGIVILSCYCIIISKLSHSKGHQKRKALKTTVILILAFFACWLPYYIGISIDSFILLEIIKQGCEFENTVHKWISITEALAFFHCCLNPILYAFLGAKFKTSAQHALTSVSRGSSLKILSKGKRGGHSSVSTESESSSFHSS

Consider `Cc1nc(CN(CCCC(=O)O)c2cccc3cccnc23)cc(N2CCN(C)CC2)n1` [Compound D30, 4-(((2-methyl-6-(4-methylpiperazin-1-yl)pyrimidin-4-yl)methyl)(quinolin-8-yl)amino)butanoic acid], for which the IC50 on CXCR4 [1] came out at 9.3 nM; at CXCR4 [2] it was 3820 nM.
As to `Cc1nc(CN(C)c2cccc3cccnc23)cc(N2CCN(C)[C@H](C)C2)n1` [Compound D4], the IC50 was 0.14 nM at CXCR4 [1] and 55 nM at CXCR4 [2].
For the compound `CN1CCN(c2cc(CN(C)C3CCCc4cccnc43)ncn2)CC1` (stereo not shown) [Compound A1, N-methyl-N-((6-(4-methylpiperazin-1-yl)pyrimidin-4-yl)methyl)-5,6,7,8-tetrahydroquinolin-8-amine], the values for the IC50 at CXCR4 [1] and on CXCR4 [2] were 4.5 nM and 45 nM, respectively.
For `Cc1nc(CN(C)[C@H]2CCCc3cccnc32)c(C)c(N2CCN(C)CC2)n1` [Compound A61], the values for the IC50 at CXCR4 [1] and on CXCR4 [2] were 0.024 nM and 8.8 nM, respectively.
The matching figures for `CCN(Cc1cc(N2CCN(C)CC2)nc(C)n1)c1cccc2cccnc12` [Compound D25]: 16 nM and 151 nM.
Turning to `Cc1nc(CN(C)[C@H]2CCCc3cccnc32)cc(N2CCN(C)CC2)n1` [Compound A42], the IC50 came to 0.021 nM on CXCR4 [1] and 9.8 nM at CXCR4 [2].
The matching figures for `Cc1nc(CN(C)c2cccc3cccnc23)cc(N2CCN(C)CC2)n1` [Compound D2, N-methyl-N-((2-methyl-6-(4-methylpiperazin-1-yl)pyrimidin-4-yl)methyl)quinolin-8-amine]: 0.24 nM and 65 nM.
As to `Cc1nc(CN(C)c2cc(F)c(F)c3cccnc23)cc(N2CCN(C)CC2)n1` [Compound D20], the IC50 on CXCR4 [1] turned out to be 3.1 nM; at CXCR4 [2], 675 nM.
In the case of `Cc1nc(CN(C)C2=C(F)CCc3cccnc32)cc(N2CCN(C)CC2)n1` [Compound D1, 7-fluoro-N-methyl-N-((2-methyl-6-(4-methylpiperazin-1-yl)pyrimidin-4-yl)methyl)-5,6-dihydroquinolin-8-amine], the IC50 on CXCR4 [1] came to 1.2 nM; at CXCR4 [2] it was 18 nM.
The matching figures for `Cc1nc(CN(C)c2cccc3cccnc23)c(C#N)c(N2CCN(C)CC2)n1` [Compound D36]: 3.6 nM and 1170 nM.
With `Cc1nc(CN(C)[C@@H](C)c2ccccn2)cc(N2CCN(C)CC2)n1` [Compound A75, (S)-N-methyl-N-((2-methyl-6-(4-methylpiperazin-1-yl)pyrimidin-4-yl)methyl)-1-(pyridin-2-yl)ethan-1-amine], the values for the concentration for half-maximal inhibition (IC50) on CXCR4 [1] and on CXCR4 [2] were 0.09 nM and 15 nM, respectively.
Consider `Cc1nc(CN(C)c2c(C)ccc3cccnc23)cc(N2CCN(C)CC2)n1` [Compound D14], for which the IC50 turned out to be 0.3 nM at CXCR4 [1] and 57 nM on CXCR4 [2].
`Cc1nc(CN(CCCCN)c2cccc3cccnc23)cc(N2CCN(C)CC2)n1` [Compound D28]: the IC50 turned out to be 0.21 nM at CXCR4 [1] and 338 nM at CXCR4 [2].
Consider `Cc1nc(CN(C)[C@H]2CCOc3cccnc32)cc(N2CCN(C)CC2)n1` [Compound A91], for which the IC50 at CXCR4 [1] is 0.032 nM.
With `Cc1nc(CN(C)c2c(C(F)(F)F)ccc3cccnc23)cc(N2CCN(C)CC2)n1` [Compound D48], the IC50 at CXCR4 [1] came to 928 nM.
As to `C[C@@H](c1ccccn1)N(C)Cc1cc(N2CCN3CCC[C@@H]3C2)nc(CO)n1` [Compound A82], on CXCR4 [1], the IC50 was found to be 2.5 nM.
For `Cc1nc(CN(C)c2ccc(NS(C)(=O)=O)c3cccnc23)cc(N2CCN(C)CC2)n1` [Compound D57, N-(8-(methyl((2-methyl-6-(4-methylpiperazin-1-yl)pyrimidin-4-yl)methyl)amino)quinolin-5-yl)methanesulfonamide], the IC50 on CXCR4 [1] worked out at 2880 nM.
`Cc1nc(CN(C)c2cccc3cccnc23)c(C)c(N2CCN(C)CC2)n1` [Compound D33]: at CXCR4 [1], the IC50 amounted to 0.51 nM.
For `Cc1nc(CN(C)c2cccc3cccnc23)cc(N2CCC(N(C)C)CC2)n1` [Compound D6], the IC50 on CXCR4 [1] is 2.4 nM.
For `Cc1nc(CN(C)c2cc(F)cc3cccnc23)cc(N2CCN(C)C(CO)C2)n1` (stereo not shown) [Compound D53], the IC50 on CXCR4 [1] turned out to be 6.7 nM.
With `CN1CCCN(c2cc(CN(C)C3CCCc4cccnc43)ncn2)CC1` (stereo not shown) [Compound A22], the IC50 on CXCR4 [1] was found to be 3.4 nM; at CXCR4 [2], 32 nM.
For `Cc1nc(CN(C)[C@@H](C)c2ccccn2)cc(N2CCN3CCC[C@H]3C2)n1` [Compound A79], the IC50 at CXCR4 [1] was found to be 0.22 nM.
With `C[C@@H](c1ccccn1)N(C)Cc1cc(N2CCN(C)CC2)nc(N)n1` [Compound A83], at CXCR4 [1], the IC50 stood at 0.93 nM.
